Measurements reported in patent US7314626B2, “Use of peptide vectors to improve the immune response to antigens” (SYNT:EM S.A., priority 2001, dated 2008).

Columns and labels:
K562 cells = test: Cell uptake by K562 cells, flow cytometry (Mean Fluorescence Intensity); type: cell-based; conditions: for cell uptake as judged by the mean of fluorescence intensity: 37° C.
Procedure: Cell association was measured by flow cytometry using a FACScan (Becton Dickinson, USA). Free or vectorised compounds were incubated with K562 cells (5×10^5 cells per ml) in Optimem medium at 37° C. for various periods of time.
Thereafter, the cells were washed twice and then resuspended in 0.5 ml of ice-cold PBS for FACS analysis. Cell-associated fluorophores were excited at 488 nm and fluorescence was measured at 525 nm. A histogram of fluorescence intensity per cell (1×10^4) was obtained and the calculated mean of this distribution (Mean Fluorescence Intensity) was considered as representative of the amount of cell-associated peptide
Flu NP epitope was conjugated to SynB3 and SynB4 vectors. First, we compared the cell uptake of free and conjugated flu NP. Flu NP epitope was conjugated to SynB3 and SynB4 vectors and labelled with a fluorescent group (NBD). The compounds were incubated with K562 cells for various times and the cell uptake was measured using flow cytometry.
We also coupled rDPV protein with SynB3 and SynB4 vectors. The coupling procedure is described in the Protocols. First, we compared the cell uptake of free and coupled rDPV. The rDPV was labelled with a fluorescent group (NBD) in order to measure its uptake. The compounds were incubated with K562 cells for various times and the cell uptake was measured using flow cytometry.

Balb/c mice = test: Immunization with flu NP peptide, CTL responses by 51Cr release assay; type: in vivo; conditions: FIG. 2; for specific CTL responses: intradermal, 25 μg flu NP peptide equivalent, spleens after three weeks; for mice eliciting CTL responses: three mice per group
C57B1/6/c mice = test: Immunization with rDPV protein, DPV specific CTL responses by 51Cr release assay; type: in vivo; conditions: 5 μg intradermal on day 0 and day 21, spleens day 42, FIG. 4, effective response defined as >10% specific lysis
[1] = NBD-labelled free or conjugated flu NP, FIG. 1
[2] = NBD-labelled free or coupled rDPV, FIG. 3

## RRLSYSRRRF-TYQRTRALV (SEQ ID NO:22) (RRLSYSRRRFTYQRTRALV) [SynB3/flu NP]
K562 cells; [1]
  cell uptake as judged by the mean of fluorescence intensity: increased significantly
Balb/c mice
  specific CTL responses: elicited specific CTL responses
  mice eliciting CTL responses: all mice

## AWSFRVSYRGISYRRSR-rDPV ((SEQ ID NO:18)-rDPV) [SynB4/rDPV]
K562 cells; FIG. 3
  time at which cell uptake reached saturation: 100 min
K562 cells; [2]
  cell uptake as judged by the mean of fluorescence intensity: increased significantly
K562 cells; NBD-labelled free or coupled rDPV, FIG. 3, listed as rDPV-SynB4
  cell uptake as judged by the mean of fluorescence intensity: slightly better than SynB3
C57B1/6/c mice
  mean CTL response: strong CTL responses

## RRLSYSRRRF-rDPV ((SEQ ID NO:11)-rDPV) [SynB3/rDPV]
K562 cells; FIG. 3
  time at which cell uptake reached saturation: 30 min
K562 cells; [2]
  cell uptake as judged by the mean of fluorescence intensity: increased significantly
C57B1/6/c mice
  mean CTL response: strong CTL responses

## TYQRTRALV (SEQ ID NO:20) [flu NP, reference compound]
K562 cells; [1]
  cell uptake as judged by the mean of fluorescence intensity: very low uptake
Balb/c mice
  specific CTL responses: failed to elicit specific CTL responses

## AWSFRVSYRGISYRRSR-TYQRTRALV (SEQ ID NO:21) (AWSFRVSYRGISYRRSRTYQRTRALV) [SynB4/flu NP]
K562 cells; [1]
  cell uptake as judged by the mean of fluorescence intensity: increased significantly
K562 cells; at 45 min
  cell uptake higher than the one observed for free flu NP: about 5 fold
Balb/c mice
  specific CTL responses: elicited specific CTL responses
  mice eliciting CTL responses: all mice
